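In this assay, cells in 96-well plates receive the compound at five concentrations for 48 hours. Endpoints are linearly interpolated between the surrounding concentrations. TGI denotes the concentration required for complete inhibition of growth.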
How the values were obtained:
Assay in all cases: DTP human tumour cell line panel, 48 h
786-0 renal = test system: 786-0 renal
A498 renal = test system: A498 renal
A549 NSCLC = test system: A549 NSCLC
ACHN renal = test system: ACHN renal
CAKI-1 renal = test system: CAKI-1 renal
CCRF-CEM leukemia = test system: CCRF-CEM leukemia
COLO 205 colon = test system: COLO 205 colon
DLD-1 colon = test system: DLD-1 colon
DMS 114 small cell lung = test system: DMS 114 small cell lung
DMS 273 small cell lung = test system: DMS 273 small cell lung
HCC-2998 colon = test system: HCC-2998 colon
HCT-116 colon = test system: HCT-116 colon
HCT-15 colon = test system: HCT-15 colon
HL-60(TB) leukemia = test system: HL-60(TB) leukemia
HOP-18 NSCLC = test system: HOP-18 NSCLC
HOP-62 NSCLC = test system: HOP-62 NSCLC
HOP-92 NSCLC = test system: HOP-92 NSCLC
HT29 colon = test system: HT29 colon
IGROV1 ovarian = test system: IGROV1 ovarian
K-562 leukemia = test system: K-562 leukemia
KM12 colon = test system: KM12 colon
KM20L2 colon = test system: KM20L2 colon
LXFL 529 NSCLC = test system: LXFL 529 NSCLC
M19-MEL melanoma = test system: M19-MEL melanoma
MOLT-4 leukemia = test system: MOLT-4 leukemia
NCI-H23 lung = test system: NCI-H23 lung
NCI-H460 lung = test system: NCI-H460 lung
OVCAR-3 ovarian = test system: OVCAR-3 ovarian
OVCAR-4 ovarian = test system: OVCAR-4 ovarian
OVCAR-8 ovarian = test system: OVCAR-8 ovarian
RPMI-8226 leukemia = test system: RPMI-8226 leukemia
RXF 393 renal = test system: RXF 393 renal
SF-295 CNS = test system: SF-295 CNS
SF-539 CNS = test system: SF-539 CNS
SK-MEL-2 melanoma = test system: SK-MEL-2 melanoma
SK-MEL-28 melanoma = test system: SK-MEL-28 melanoma
SN12C renal = test system: SN12C renal
SNB-19 CNS = test system: SNB-19 CNS
SNB-75 CNS = test system: SNB-75 CNS
SNB-78 CNS = test system: SNB-78 CNS
SR leukemia = test system: SR leukemia
SW-620 colon = test system: SW-620 colon
U251 CNS = test system: U251 CNS
UACC-257 melanoma = test system: UACC-257 melanoma
UACC-62 melanoma = test system: UACC-62 melanoma
UO-31 renal = test system: UO-31 renal
XF 498 CNS = test system: XF 498 CNS
EKVX NSCLC = test system: EKVX NSCLC
LOX IMVI melanoma = test system: LOX IMVI melanoma
M14 melanoma = test system: M14 melanoma
MALME-3M melanoma = test system: MALME-3M melanoma
OVCAR-5 ovarian = test system: OVCAR-5 ovarian
RXF-631 renal = test system: RXF-631 renal
SK-MEL-5 melanoma = test system: SK-MEL-5 melanoma
SK-OV-3 ovarian = test system: SK-OV-3 ovarian
TK-10 renal = test system: TK-10 renal

Compound: N#CC12CCC1C1CCCCC12N1CCSCC1 (stereo unspecified)
- TGI (786-0 renal): > 100 µM
- TGI (A498 renal): > 100 µM
- TGI (A549 NSCLC): > 100 µM
- TGI (ACHN renal): > 100 µM
- TGI (CAKI-1 renal): > 100 µM
- TGI (CCRF-CEM leukemia): > 100 µM
- TGI (COLO 205 colon): > 100 µM
- TGI (DLD-1 colon): > 100 µM
- TGI (DMS 114 small cell lung): > 100 µM
- TGI (DMS 273 small cell lung): > 100 µM
- TGI (HCC-2998 colon): > 100 µM
- TGI (HCT-116 colon): > 100 µM
- TGI (HCT-15 colon): > 100 µM
- TGI (HL-60(TB) leukemia): 46.1 µM
- TGI (HOP-18 NSCLC): > 100 µM
- TGI (HOP-62 NSCLC): > 100 µM
- TGI (HOP-92 NSCLC): > 100 µM
- TGI (HT29 colon): > 100 µM
- TGI (IGROV1 ovarian): > 100 µM
- TGI (K-562 leukemia): > 100 µM
- TGI (KM12 colon): > 100 µM
- TGI (KM20L2 colon): > 100 µM
- TGI (LXFL 529 NSCLC): > 100 µM
- TGI (M19-MEL melanoma): > 100 µM
- TGI (MOLT-4 leukemia): > 100 µM
- TGI (NCI-H23 lung): > 10 µM
- TGI (NCI-H460 lung): > 100 µM
- TGI (OVCAR-3 ovarian): > 100 µM
- TGI (OVCAR-4 ovarian): > 10 µM
- TGI (OVCAR-8 ovarian): > 100 µM
- TGI (RPMI-8226 leukemia): > 100 µM
- TGI (RXF 393 renal): 86.5 µM
- TGI (SF-295 CNS): > 100 µM
- TGI (SF-539 CNS): > 100 µM
- TGI (SK-MEL-2 melanoma): > 100 µM
- TGI (SK-MEL-28 melanoma): > 100 µM
- TGI (SN12C renal): > 100 µM
- TGI (SNB-19 CNS): > 100 µM
- TGI (SNB-75 CNS): > 100 µM
- TGI (SNB-78 CNS): > 100 µM
- TGI (SR leukemia): > 100 µM
- TGI (SW-620 colon): > 100 µM
- TGI (U251 CNS): > 100 µM
- TGI (UACC-257 melanoma): > 10 µM
- TGI (UACC-62 melanoma): > 100 µM
- TGI (UO-31 renal): > 100 µM
- TGI (XF 498 CNS): > 100 µM

Compound: CNC(=O)NCNC(=O)NC
- TGI (786-0 renal): > 100 µM
- TGI (A498 renal): > 100 µM
- TGI (A549 NSCLC): > 100 µM
- TGI (CAKI-1 renal): > 100 µM
- TGI (CCRF-CEM leukemia): > 100 µM
- TGI (COLO 205 colon): > 100 µM
- TGI (DLD-1 colon): > 100 µM
- TGI (DMS 114 small cell lung): > 100 µM
- TGI (DMS 273 small cell lung): > 100 µM
- TGI (EKVX NSCLC): > 100 µM
- TGI (HCC-2998 colon): > 100 µM
- TGI (HCT-116 colon): > 100 µM
- TGI (HCT-15 colon): > 100 µM
- TGI (HL-60(TB) leukemia): > 100 µM
- TGI (HOP-18 NSCLC): > 100 µM
- TGI (HOP-62 NSCLC): > 100 µM
- TGI (HOP-92 NSCLC): > 100 µM
- TGI (HT29 colon): > 100 µM
- TGI (IGROV1 ovarian): > 100 µM
- TGI (K-562 leukemia): > 100 µM
- TGI (KM12 colon): > 100 µM
- TGI (KM20L2 colon): > 100 µM
- TGI (LOX IMVI melanoma): > 100 µM
- TGI (LXFL 529 NSCLC): > 100 µM
- TGI (M14 melanoma): > 100 µM
- TGI (M19-MEL melanoma): > 100 µM
- TGI (MALME-3M melanoma): > 100 µM
- TGI (MOLT-4 leukemia): > 100 µM
- TGI (NCI-H23 lung): > 100 µM
- TGI (NCI-H460 lung): > 100 µM
- TGI (OVCAR-3 ovarian): > 100 µM
- TGI (OVCAR-4 ovarian): > 100 µM
- TGI (OVCAR-5 ovarian): > 100 µM
- TGI (OVCAR-8 ovarian): > 100 µM
- TGI (RPMI-8226 leukemia): > 100 µM
- TGI (RXF-631 renal): > 100 µM
- TGI (SF-295 CNS): > 100 µM
- TGI (SF-539 CNS): > 100 µM
- TGI (SK-MEL-2 melanoma): > 100 µM
- TGI (SK-MEL-28 melanoma): > 100 µM
- TGI (SK-MEL-5 melanoma): > 100 µM
- TGI (SK-OV-3 ovarian): > 100 µM
- TGI (SNB-75 CNS): > 100 µM
- TGI (SNB-78 CNS): > 100 µM
- TGI (SW-620 colon): > 100 µM
- TGI (TK-10 renal): > 100 µM
- TGI (U251 CNS): > 100 µM
- TGI (UACC-257 melanoma): > 100 µM
- TGI (UACC-62 melanoma): > 100 µM

From PubChem BioAssay (NCI)
